This is an account of results in patent EP2787001A1, “(E)-3-Aryl-3-oxoprop-1-enyl-2-phosphonic acid and its derivatives, methods for their preparation and their use” (Centrum Badan Molekularnych I Makromolekularnych Polskiej …, priority 2013, dated 2014).

Molecules are shown by their SMILES.

Assay [1] relates to synthetic DNA duplex (23 nt- 5'TCTTCAAGAATTCAGGTCCTGAT 3'). Description: Circular dichroism (CD) spectra of DNA with test compounds. It counts as binding. The following applies: DNA duplex 2µM, compound 20µM, 0.2% DMSO, PBS, 23°C, immediately after addition. The protocol: The ability of the test compounds 1a and 1b to interact with DNA was tested by the circular dichroism (CD) technique.
1. For this purpose, samples were prepared in PBS buffer containing: 2µM of synthetic DNA duplex (23 nt- 5'TCTTCAAGAATTCAGGTCCTGAT 3') or DNA of bovine thymus (0.2 mg/ml) and test compounds at a concentration of 20µM or 40µM for synthetic DNA duplex sample and thymus DNA sample, respectively. The samples contained 0.2% or 0.4% DMSO (for synthetic DNA duplex sample and thymus DNA sample, respectively), which is a solvent of the test compounds.
2. CD spectra (in the range from 200 nm to 320 nm) were recorded immediately after addition of the test compounds as well as after 1.5 h incubation. The measurement was carried out at 23°C in a quartz cuvette (optical path length 0.5 cm) using a spectroscope CD6 (Jobin-Yvon, France).
3. CD spectra of DNA incubated with the test compounds were compared with the control spectrum (spectrum was recorded for a sample of DNA (2µM or 0.2 mg/ml) in the presence of DMSO (final concentration of 0.2% or 0.4%).
A general note: CD spectra are sensitive to the conformation of chiral molecules.

Assay [2] deals with DNA plasmid pcDNA 3.1 HisC (8.2 kb). Description: Digestion of plasmid DNA with restriction enzyme Bam H1 after incubation with compounds (agarose gel electrophoresis). The following applies: compound 2 or 20 µM, overnight incubation at 37°C, then BamH1 2U/sample for 3 hours at 37°C; gel not shown. It counts as biochemical. The protocol: The impact of compounds 1a and 1b has been tested on the digestion of DNA plasmid pcDNA 3.1 HisC (8.2 kb) with restriction enzyme Bam H1.
1. For this purpose, pcDNA 3.1 HisC plasmid DNA (0.6 µg) was dissolved in 1×BamH1 buffer and incubated overnight at 37°C with the following reference or test compounds:
The concentration of the reference and test compounds in each sample was 2 or 20 µM.
2. After overnight incubation, the reaction mixture was digested with BamH1 restriction enzyme (2U/sample) for 3 hours at 37°C. The total volume of the samples was 10 µL.
3. The reaction products were applied on 1% agarose gel and electrophoresis was performed in TAE buffer.

Take `COP(=O)(OC)/C(=C/c1ccc2ccc3cccc4ccc1c2c34)C(=O)c1ccc2c(c1)OCO2` [Compound 1a]: the “change of CD spectrum of duplex DNA compared to the control (duplex DNA + DMSO)” value in assay [1] is on record as “changes compared to the control sample”. Besides, the “interaction with plasmid DNA: resistance to digestion by the endonucleolytic enzyme Bam H1” value in assay [2] is on record as “increasing its resistance to digestion”.
The like results for `O=C(/C(=C/c1ccc2ccc3cccc4ccc1c2c34)P(=O)(O)O)c1ccc2c(c1)OCO2` [Compound 1b, (Z)-3-(benzo[d][1,3]dioxol-5-yl)-1-(pyrene-1-yl)-3-oxoprop-1-en-2-ylphosphonic acid] were, in that order, “changes compared to the control sample” and “increasing its resistance to digestion”.
The like results for `COc1cccc2c1C(=O)c1c(O)c3c(c(O)c1C2=O)C[C@@](O)(C(C)=O)C[C@@H]3O[C@H]1C[C@H](N)[C@H](O)[C@H](C)O1` [Daunorubicin, reference compound] were, in that order, “changing significantly its structure” and “increasing its resistance to digestion”.
